What was measured:
Format in all cases: cell-based
[1] = test system: HeLa-C3 cells; assay: Cell morphology changes of HeLa-C3 cells during compound treatment (FIG. 2)
Protocol: Refereeing to FIG. 2, Cell morphology changes during the course of compound treatment. HeLa-C3 cells were treated with compounds of 2 at 25 μM, an anticancer drug, pacilitaxel at 500 nM (serving as a positive control), and a control without any drug for 24, 48, and 72 h. Various cell morphologies were recorded at the indicated time points.

[2] = test system: HeLa-C3 cells; assay: Apoptosis-inducing effect in HeLa-C3 cells (caspase-3 FRET biosensor, YFP/CFP emission ratio); conditions: for Apoptotic effect at 10 μM / Apoptotic effect at 25 μM / Apoptotic effect at 50 μM / Apoptotic effect at 100 μM: 72 h, HeLa-C3 cells, YFP/CFP emission ratio
Protocol: The bioassay method was described in our previous paper with some modifications. All the testing samples were dissolved in DMSO to make stock solutions. The concentration of each stock was at least 1000 times higher than the working concentration. HeLa-C3 cells, which allows detection of apoptotic cell death involving caspase activation, were cultured in minimum essential medium (MEM) containing 10% fetal bovine serum, 100 U/mL penicillin, […] streptomycin, in a 5% CO2 humidity incubator at 37° C. The sample well for apoptotic activity testing was prepared by seeding a well on a 96-well plate with 7500 HeLa-C3 cells suspended in 100 μL culture medium. After 12-16 h incubation, the old medium was removed and 100 μL freshly prepared culture medium containing the testing sample at a certain working concentration was added to both the sample well and the corresponding background well. Culture medium containing 0.1% DMSO was the negative control while 500 nM paclitaxel was the positive control. After that, the plate was read repeatedly by a Perkin-Elmer Victor reader with excitation wavelength at 440±10 nm and emission wavelength at 486±8 nm for CFP (cyan fluorescent protein) and 535±8 nm for YFP (yellow fluorescent protein) at indicated time points. The data acquisition duration was up to 72 h. The YFP/CFP emission ratio was then calculated. The background fluorescence was measured from the wells containing only medium. After subtracting the background fluorescence from the recorded signal, net YFP and CFP readings were obtained. In this paper, Y/C emission ratio is used to represent the effect of FRET, which is equal to the net YFP reading divided by the net CFP reading from the same well. If YFP/CFP emission ratio was reduced below 3, the testing sample was considered as a good apoptotic inducer at that concentration. All samples were tested in triplicate. The whole experiment was repeated for three times.
The biological activity of these new compounds was evaluated for apoptosis inducing effects using genetically engineered HeLa-C3 cells that can produce a fluorescent biosensor capable of detecting caspase-3 activation. These cells emit a green light under normal growth conditions and change to a blue light when caspase-3 is activated during apoptosis to cleave the sensor protein inside the cells. This color change allows one to use a fluorescent plate reader to directly detect the activation level of caspase-3 in HeLa-C3 cells during the course of the compound treatment in a noninvasive way. Based on our previous test results, the emission ratio of YFP (yellow fluorescent protein)/CFP (cyanfluorescent proteins) is usually between 6 and 8 in normal cells, and this ratio will decrease to a value below 3 if a compound can activate caspase-3 and kill cancer cells. Therefore, any compound that can reduce the YFP/CFP emission ratio to a value below 3 is considered positive in activating apoptosis.

[3] = test system: HeLa cells; assay: MTT assay, cell growth inhibition on HeLa cells; conditions: 72 h
Protocol: The measurement of the IC50 was conducted on the isolated compounds using MTT assay. MIT powder was dissolved in PBS at a concentration of 5 mg/mL. For MTT assay, 10 μL of MTT solution was added into each well of a 96-well plate. After 2 h incubation at 37° C., 100 μL 10% SDS solution with 0.01 M HCl was added to dissolve the purple crystals. After 24 h incubation, the optical density (OD) readings at 595 nm were measured using a plate reader. Firstly, 2,500 HeLa cells suspended in 100 μL MEM medium were seeded respectively in a 96-well plate. After 24 h incubation, fresh medium contains various concentrations of each compound were added into the 96-well plate and changed the old medium. The concentrations applied except compound 1 which was from 200 μM to 3.125 μM were ranged from 100 μM to 1.5625 μM, which was achieved by doing two-fold dilutions for 6 times. The OD values of the control group at 0 h and 72 h together with the compound treated groups at 72 h from the MTT assay were measured using a plate reader. IC50 is the concentration of a compound inhibiting 50% of the cell growth.

IC50 [3] [µM]	IC50 ([3]; Homo sapiens, HeLa) [µM]	SMILES	Cell morphology ([1]; 25 μM, 24, 48 and 72 h)	Apoptotic effect at 10 μM [2]	Apoptotic effect at 25 μM [2]	Apoptotic effect at 50 μM [2]	Apoptotic effect at 100 μM [2]	caspase-3 activation in HeLa-C3 cells ([2]; within 72 h at 25 μM)	Cell morphology ([1]; 500 nM (positive control), 24, 48 and 72 h)
9.5 ± 0.2	< 10	COC(=O)c1c(O)cc(O)cc1Oc1c(O)c(OC)cc(CC=C(C)C)c1OC [Compound 2, Paucinervin B]	shrinkage and detached morphology	− (“−” means the YFP/CFP emission ratio of compound treated HeLa-C3 cells was above 3 at 72 h)	+ (“+” means the YFP/CFP emission ratio of compound treated HeLa-C3 cells was below 3 at 72 h)	+ (“+” means the YFP/CFP emission ratio of compound treated HeLa-C3 cells was below 3 at 72 h)	+ (“+” means the YFP/CFP emission ratio of compound treated HeLa-C3 cells was below 3 at 72 h)	could activate caspase-3	–
–	–	CC(=O)O[C@H]1C(=O)[C@@]2(C)[C@H]([C@H](OC(=O)c3ccccc3)[C@]3(O)C[C@H](OC(=O)[C@H](O)[C@@H](NC(=O)c4ccccc4)c4ccccc4)C(C)=C1C3(C)C)[C@]1(OC(C)=O)CO[C@@H]1C[C@@H]2O [paclitaxel, reference compound]	–	–	–	–	–	–	shrinkage and detached morphology
95.6 ± 5.5	–	COc1c(O)c(CC=C(C)C)cc2c1Oc1cc(O)c(CC=C(C)C)c(O)c1C(=O)O2 [Compound 1, Paucinervin A]	–	− (“−” means the YFP/CFP emission ratio of compound treated HeLa-C3 cells was above 3 at 72 h)	− (“−” means the YFP/CFP emission ratio of compound treated HeLa-C3 cells was above 3 at 72 h)	− (“−” means the YFP/CFP emission ratio of compound treated HeLa-C3 cells was above 3 at 72 h)	+ (“+” means the YFP/CFP emission ratio of compound treated HeLa-C3 cells was below 3 at 72 h)	–	–
